The text below walks through data of ChEMBL document CHEMBL1142222, “A-803467, a potent and selective Nav1.8 sodium channel blocker, attenuates neuropathic and inflammatory pain in the rat” (Proc Natl Acad Sci U S A, 2007).

Test [1] concerns Rattus norvegicus. Description: Analgesic activity in ip dosed rat L5/L6 spinal nerve ligation-induced neuropathic pain model. It counts as functional.
Test [2] has as its system Rattus norvegicus. Description: Analgesic activity in ip dosed rat cyclophosphamide induced cyctitis model at 100 mg/kg, ip. The note with it: route intraperitoneal. It counts as functional.
For test [3], the species on record is Rattus norvegicus. Description: Motor effect in rat assessed as locomotory activity. The format is functional.
In test [4] the target is 5-hydroxytryptamine receptor 2A (Homo sapiens, UniProt P28223). Description: Displacement of [3H]ketanserin from 5HT2A receptor. (In general: In a radioligand displacement assay an active substance lowers the binding of a labelled ligand.)
Sequence of 5-hydroxytryptamine receptor 2A (P28223 whole entry): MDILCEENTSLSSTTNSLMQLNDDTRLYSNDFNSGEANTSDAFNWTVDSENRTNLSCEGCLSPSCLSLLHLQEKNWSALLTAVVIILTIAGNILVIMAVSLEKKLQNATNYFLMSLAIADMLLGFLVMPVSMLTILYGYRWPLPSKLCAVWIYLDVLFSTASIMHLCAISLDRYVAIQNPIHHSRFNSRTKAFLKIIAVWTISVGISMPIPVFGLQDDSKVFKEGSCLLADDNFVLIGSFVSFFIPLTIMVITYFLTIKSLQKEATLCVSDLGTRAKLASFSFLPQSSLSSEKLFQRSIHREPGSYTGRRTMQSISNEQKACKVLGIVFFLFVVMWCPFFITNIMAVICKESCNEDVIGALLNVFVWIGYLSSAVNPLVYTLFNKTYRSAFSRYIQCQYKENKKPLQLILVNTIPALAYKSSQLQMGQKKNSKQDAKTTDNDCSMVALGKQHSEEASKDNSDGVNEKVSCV
The target in test [5] is Potassium voltage-gated channel subfamily KQT member 2 (Homo sapiens, UniProt O43526). The test is described as follows: Inhibition of KCNQ2 channel.
Sequence of Potassium voltage-gated channel subfamily KQT member 2 (O43526 whole entry): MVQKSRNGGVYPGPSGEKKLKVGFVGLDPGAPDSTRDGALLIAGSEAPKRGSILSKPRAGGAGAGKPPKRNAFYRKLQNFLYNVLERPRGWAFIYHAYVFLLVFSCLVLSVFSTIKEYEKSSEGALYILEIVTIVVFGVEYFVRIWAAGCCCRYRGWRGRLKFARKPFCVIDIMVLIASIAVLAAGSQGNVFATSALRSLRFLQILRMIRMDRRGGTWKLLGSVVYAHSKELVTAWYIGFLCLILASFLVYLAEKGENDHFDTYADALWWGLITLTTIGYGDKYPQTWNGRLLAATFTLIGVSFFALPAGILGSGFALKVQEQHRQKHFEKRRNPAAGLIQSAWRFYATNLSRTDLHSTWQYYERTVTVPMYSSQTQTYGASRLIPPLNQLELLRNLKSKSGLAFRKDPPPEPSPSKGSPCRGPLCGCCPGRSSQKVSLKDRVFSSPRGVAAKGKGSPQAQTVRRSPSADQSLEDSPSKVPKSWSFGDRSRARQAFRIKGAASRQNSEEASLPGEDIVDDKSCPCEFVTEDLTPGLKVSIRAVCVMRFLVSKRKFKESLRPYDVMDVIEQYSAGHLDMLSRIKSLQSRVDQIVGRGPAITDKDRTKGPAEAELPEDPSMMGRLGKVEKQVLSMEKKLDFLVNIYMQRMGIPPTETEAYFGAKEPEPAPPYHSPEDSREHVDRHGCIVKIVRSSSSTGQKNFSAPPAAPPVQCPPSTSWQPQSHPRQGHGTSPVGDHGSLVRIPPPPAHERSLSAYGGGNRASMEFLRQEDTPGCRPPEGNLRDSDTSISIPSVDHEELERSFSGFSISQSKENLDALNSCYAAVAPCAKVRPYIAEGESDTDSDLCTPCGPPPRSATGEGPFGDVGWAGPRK
In test [6] the target is Potassium voltage-gated channel subfamily KQT member 3 (Homo sapiens, UniProt O43525). The test is described as follows: Inhibition of KCNQ3 channel.
Sequence of Potassium voltage-gated channel subfamily KQT member 3 (O43525 whole entry): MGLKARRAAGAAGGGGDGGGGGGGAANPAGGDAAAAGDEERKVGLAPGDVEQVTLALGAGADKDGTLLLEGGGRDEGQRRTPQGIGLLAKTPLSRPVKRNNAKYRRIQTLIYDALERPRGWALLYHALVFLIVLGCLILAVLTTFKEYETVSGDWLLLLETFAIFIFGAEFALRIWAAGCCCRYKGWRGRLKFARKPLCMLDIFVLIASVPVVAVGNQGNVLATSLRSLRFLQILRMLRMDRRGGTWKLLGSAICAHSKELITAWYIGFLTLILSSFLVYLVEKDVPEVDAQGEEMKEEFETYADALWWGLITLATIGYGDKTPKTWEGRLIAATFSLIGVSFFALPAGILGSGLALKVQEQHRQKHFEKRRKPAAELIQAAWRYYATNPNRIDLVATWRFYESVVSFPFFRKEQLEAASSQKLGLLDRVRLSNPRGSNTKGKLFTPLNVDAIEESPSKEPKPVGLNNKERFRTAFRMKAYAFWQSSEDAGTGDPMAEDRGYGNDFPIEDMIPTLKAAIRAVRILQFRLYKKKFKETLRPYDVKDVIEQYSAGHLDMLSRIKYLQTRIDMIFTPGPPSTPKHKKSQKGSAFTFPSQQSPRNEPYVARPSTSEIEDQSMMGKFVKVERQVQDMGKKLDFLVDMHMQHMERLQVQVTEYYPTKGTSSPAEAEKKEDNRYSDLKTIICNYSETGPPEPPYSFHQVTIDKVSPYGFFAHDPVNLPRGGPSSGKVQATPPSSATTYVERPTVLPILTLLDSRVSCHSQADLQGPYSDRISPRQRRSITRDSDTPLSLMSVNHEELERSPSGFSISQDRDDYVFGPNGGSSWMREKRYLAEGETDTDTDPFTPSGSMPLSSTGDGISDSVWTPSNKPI
The test system of test [7] is Rattus norvegicus. The test is described as follows: Analgesic activity in rat acute thermal stimulation nociception model assessed as paw withdrawal latency at 100 mg/kg, ip. The note with it: route intraperitoneal. It counts as functional.
For another test, the target named is Adenosine receptor A3 (Homo sapiens, UniProt P0DMS8). The test is described as follows: Displacement of [125I]AB-MECA from adenosine A3 receptor.
Sequence of Adenosine receptor A3 (P0DMS8 whole entry): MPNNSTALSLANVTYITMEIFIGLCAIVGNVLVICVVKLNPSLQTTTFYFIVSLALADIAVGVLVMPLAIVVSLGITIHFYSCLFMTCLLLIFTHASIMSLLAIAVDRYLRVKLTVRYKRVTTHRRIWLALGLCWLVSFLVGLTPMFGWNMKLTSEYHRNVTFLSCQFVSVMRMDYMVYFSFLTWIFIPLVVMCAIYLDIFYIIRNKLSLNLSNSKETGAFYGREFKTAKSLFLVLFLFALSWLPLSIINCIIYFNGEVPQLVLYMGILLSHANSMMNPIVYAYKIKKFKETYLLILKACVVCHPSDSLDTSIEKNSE
In the next test the target is P2X purinoceptor 3 (Homo sapiens, UniProt P56373). The test is described as follows: Inhibition of P2X3 receptor.
Sequence of P2X purinoceptor 3 (P56373 whole entry): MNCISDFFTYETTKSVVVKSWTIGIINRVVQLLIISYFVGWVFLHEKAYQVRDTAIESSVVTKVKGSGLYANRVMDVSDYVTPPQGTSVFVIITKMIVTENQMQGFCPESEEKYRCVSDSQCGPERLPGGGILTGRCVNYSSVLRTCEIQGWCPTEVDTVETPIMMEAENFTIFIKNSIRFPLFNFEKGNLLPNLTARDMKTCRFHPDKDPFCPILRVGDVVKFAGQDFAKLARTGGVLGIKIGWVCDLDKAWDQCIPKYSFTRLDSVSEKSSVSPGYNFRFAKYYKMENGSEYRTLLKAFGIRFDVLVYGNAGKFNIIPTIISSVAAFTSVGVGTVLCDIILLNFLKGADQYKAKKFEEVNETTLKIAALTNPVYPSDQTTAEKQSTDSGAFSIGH
Another test deals with D(3) dopamine receptor (Homo sapiens, UniProt P35462). Description: Displacement of [3H]spiperone from dopamine D3 receptor.
Sequence of D(3) dopamine receptor (P35462 whole entry): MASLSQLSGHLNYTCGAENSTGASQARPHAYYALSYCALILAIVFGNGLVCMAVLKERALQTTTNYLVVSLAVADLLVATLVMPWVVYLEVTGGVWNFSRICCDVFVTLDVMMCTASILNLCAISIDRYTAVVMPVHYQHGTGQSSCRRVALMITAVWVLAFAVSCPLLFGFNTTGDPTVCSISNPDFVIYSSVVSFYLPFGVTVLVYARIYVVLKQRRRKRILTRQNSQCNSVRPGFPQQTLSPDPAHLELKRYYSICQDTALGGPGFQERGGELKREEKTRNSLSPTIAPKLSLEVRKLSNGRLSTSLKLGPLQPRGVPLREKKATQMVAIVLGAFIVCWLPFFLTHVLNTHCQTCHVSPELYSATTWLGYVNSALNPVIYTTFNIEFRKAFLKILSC

Take `COc1cc(NC(=O)c2ccc(-c3ccc(Cl)cc3)o2)cc(OC)c1`: the ED50 (in general, the midpoint of the dose-response relation) is 47 mg/kg with Rattus norvegicus [1] and greater than 300 mg/kg in the test filed under Rattus norvegicus [3]. In addition, the Activity with Rattus norvegicus [2] and in the test with Rattus norvegicus [7] was 0% each time. Further, the IC50 (in general, the concentration needed to halve the response being measured) was 3 µM in [4]; greater than 10 µM in test [5]; greater than 10 µM in [6]; 12 µM on Adenosine receptor A3; greater than 10 µM against P2X purinoceptor 3; greater than 10 µM on D(3) dopamine receptor.
